{
  "source": "patent US7238668B1",
  "about": "“Inhibition of lymphocyte adherence with CS-1-peptides and fragments thereof” (Fred Hutchinson Cancer Research Center, priority 1989, dated 2007)",
  "key": {"[1]": {"system": "Jurkat cells", "assay": "Jurkat cell adhesion to surfaces coated with peptide-rsa conjugates", "format": "cell-based, human", "conditions": "Jurkat; FIG. 12; 5 ug/ml peptide; 30 min", "protocol": "^51Cr-labeled Jurkat cells ([…]) were incubated on surfaces coated with varying concentrations of peptide-rsa conjugates starting at 50 ug/ml (w/v) fragment or peptide (based on peptide not peptide-conjugate weight). […] (No adhesion=no measurable adhesion above negative controls.)\n(§1) Adhesion of various hematopoetic cell lines to CS-1 (open bars; FIG. 12) or LDV minimal peptide-coated surfaces (cross-hatched bars; FIG. 12) was tested as follows: Jurkat (T lymphoblastoid), A375 (melanoma), U937 (monocytic), Ramos (B lymphoblastoid), and ST-1 (EBV transformed B lymphoblastoid) cells were allowed to adhere to CS-1-rsa or LDVPST-rsa (5 ug/ml peptide) coated surfaces for 30 min at 37° C. At the end of this time the non-adherent cells were washed off and the adherent cells were solubilized in NaOH/SDS and quantitated in a gamma counter. The results are expressed as bound counts per minute."}, "[2]": {"system": "A375 melanoma cells", "assay": "A375 melanoma cell adhesion to peptide-rsa coated surfaces", "format": "cell-based, human", "conditions": "FIG. 12, 5 ug/ml peptide, 30 min", "protocol": "as §1"}},
  "note": "Ends that are not written are not given here.",
  "data": [
    {"substance": "LDVPST-RSA: LDVPST conjugated to rabbit serum albumin (also: conjugated to rabbit serum albumin, site not given here)", "values": [
      {"measurement": "Cell adhesion to conjugate-coated surfaces", "setting": "[1]", "result": "only slightly"},
      {"measurement": "Cell adhesion to conjugate-coated surfaces", "setting": "[2]", "result": "adhered"}
    ]}
  ]
}
